Tested on: Human umbilical cord mesenchymal stem cells
Experiment: Screening for the content of conophylline in the medium: differentiation induction, cell cluster morphology
Format: cell-based
Description: Media to be tested: 89 parts by volume of DMEM (High Glucose, with 4.5 g/L glucose), 5 parts by volume of serum replacement (SR), 2 parts by volume of B27 (50×), 1 part by volume of ITS, 1 part by volume of non-essential amino acids (NEAA), 1 part by volume of N-2 (100×), and heparin in a final concentration of 1 μg/ml, 10 mmol/L nicotinamide, and recombinant human basic fibroblast growth factor (b-FGF), epidermal growth factor (EGF), hepatocyte growth factor (HGF) and pentagastrin each in a final concentration of 10 ng/ml, and conophylline with a concentration of 1, 10, 50, 100, 200, and 300 ng/ml respectively.
Human umbilical cord mesenchymal stem cells were induced to differentiate through being cultured in the above media comprising different concentrations of conophylline respectively.

CC[C@@]12CC(C(=O)OC)=C3Nc4cc5c(cc4[C@@]34CCN(C[C@H]3O[C@H]31)[C@@H]24)[C@@H]1[C@H](O5)[C@@H](O)[C@@]2(CC)CC(C(=O)OC)=C3Nc4c(cc(O)c(OC)c4OC)[C@@]34CCN1[C@@H]24 [conophylline]
state of cell clusters (medium with 1 ng/ml conophylline): the maturity of the cell clusters was insufficient
state of cell clusters (medium with 10 ng/ml conophylline): the maturity of the cell clusters was insufficient
state of cell clusters (medium with 50 ng/ml conophylline): cell clusters were compact and grew gradually
state of cell clusters (medium with 100 ng/ml conophylline): cell clusters were compact and grew gradually
state of cell clusters (medium with 200 ng/ml conophylline): cell clusters were compact and grew gradually
state of cell clusters (medium with 300 ng/ml conophylline): the differentiated cells had undergone an undirected differentiation
